The values that follow come from patent US20210047290A1, “SPIRO COMPOUND AS INDOLEAMINE-2,3-DIOXYGENASE INHIBITOR” (SHANGHAI INSTITUTE OF ORGANIC CHEMISTRY, CHINESE ACADEMY OF …, priority 2018, published 2021).

Molecules are shown by their SMILES.

One assay addresses T1, IDO enzyme (Homo sapiens, UniProt P14902).
T1 construct: made in house; host or cells: E. coli BL21 (pET28a-IDO plasmid)
The assay can be described thus: IDO enzyme inhibitory activity test. Type of assay: biochemical. The note with it: recombinant IDO, D-Trp substrate, reading at 321 nm for 40 min. As for the experimental part:
(1) Induced Expression and Purification Method of IDO Protein
Firstly, DO gene was amplified with PCR, and the amplified PCR product was recycled. Digestion (2 h under 37° C.), gel running and recycling were carried out on the pET28a plasmid (purchased from Shanghai Baomanbio Co., Ltd.) and IDO gel with two restriction enzymes (EcoR I and Xho I). T4 ligase was connected with the product overnight, added into DH5α competence, placed on the ice for 30 min and subjected to thermal shock at 42° C. for 90 s.
BL21 which contained pET28a-IDO plasmid was shaken vigorously at 37° C. till OD600 was 0.6-0.8, added into hemin (final concentration: 40 μM) and 0.5 mM IPTG (isopropyl-3-D-IPTG) and induced under 16° C. for 20 h; after induction, thallus were collected centrifugally at 4° C. and 6,000 rpm, washed with 50 mM PBS (pH 7.5) and collected again centrifugally.
The collected thallus were suspended again with buffer solution (50 mM PBS pH 7.5). An appropriate amount of 100×PMSF was added. The thallus were disrupted with cell disruption instrument (1,400 bar) at 4° C. for three times. The split bacteria were centrifuged at 18,000×g for 45 min. The sediment was removed but supernatant was retained and filtered with a 0.45 μm film at 4° C.; the nickel column was balanced with lysis buffer (50 mM PBS pH7.5) by 3 column volumes.
The supernatant was loaded on the nickel column and washed with wash solution (50 mM PBS pH7.5, 50 mM imidazole) by 4 column volume. Finally, protein was eluted with eluant (50 mM PBS pH7.5, 250 mM imidazole); dialyzed for 6 h with dialysis solution (50 mM PBS pH7.5), concentrated, sub-packaged, quickly frozen with liquid nitrogen and stored at −80° C. for backup.
(2) Test Method for IDO Enzyme Inhibitory Activity
Firstly, the compound was diluted by triple gradient. 1 μL of each concentration was added into a 96-well plate; 50 μL of IDO Enzyme solution PBS (pH 7.5; final concentration: 50 mM) was added: 25 μL of substrate 1 (methylene blue, final concentration: […]; catalase, final concentration: 0.2 μg/L; PBS (pH 7.5; final concentration: 50 mM) mixture and 25 μL of substrate 2 (D-Trp, final concentration: 1.5 mM; sodium ascorbate, final concentration: 20 mM; PBS (pH 7.5), final concentration 50 mM) mixture were added for starting the reaction. Finally, OOD321 nm reading was carried out for 40 min.

The next assay deals with T2, IDO in Hela cells (Homo sapiens, UniProt P14902).
T2 construct: endogenous in cells; host or cells: HeLa cells stimulated with human interferon γ
T2 sequence (P14902 whole entry): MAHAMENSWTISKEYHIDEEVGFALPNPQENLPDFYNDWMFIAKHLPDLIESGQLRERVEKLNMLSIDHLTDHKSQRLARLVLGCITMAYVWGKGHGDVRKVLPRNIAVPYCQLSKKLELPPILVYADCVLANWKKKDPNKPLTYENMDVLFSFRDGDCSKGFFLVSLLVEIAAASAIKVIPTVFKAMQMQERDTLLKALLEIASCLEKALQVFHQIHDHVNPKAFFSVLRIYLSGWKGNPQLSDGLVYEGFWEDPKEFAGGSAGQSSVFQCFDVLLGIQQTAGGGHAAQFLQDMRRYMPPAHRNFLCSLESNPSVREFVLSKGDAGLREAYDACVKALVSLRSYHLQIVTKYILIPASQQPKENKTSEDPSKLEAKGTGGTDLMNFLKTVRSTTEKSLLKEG
Briefly: Test of cellular activity (kynurenine formation in interferon γ stimulated Hela cells). Type of assay: cell-based. The note with it: head prints IPS cells, method: Hela cells, 48 h incubation, read at 480 nm. The method, then:
(3) Test Method of Cellular Activity
Hela cells (80 μL) was inoculated on a 96-well plate (5×10^3 for each well) to grow overnight. After the compound was diluted the next day, 1 μL of diluent and 100 μL of culture medium which contains human interferon γ (final concentration: 50 ng/m) were added into the 96-well plate to make the final volume reach […]. After incubating for 48 h, 80 μL of supernate was transferred from each well to a new […]. 10 μL 6.1N trichloroacetic acid was added into each well for mixing and incubation at 50° C. for 30 min, and […] N formyl-kynurenin into kynurenine. The reaction mixture was centrifuged at 2,500 rpm for 10 min, 70 μL of supernatant of each well was transferred to a new 96-well plate and mixed with 100 μL of 2% (w/v) dimethylaminobenzaldehyde acetic acid solution. After placing for 5-10 min, measurement was carried out at 480 nm with the SPECTRAmax i13 reader.

A word on the IC50: it is the concentration that inhibits the measured activity by half.

T1 sequence (P14902 whole entry): as above

For `O=C(NC1CC2(CCC(c3ccnc4ccc(F)cc34)CC2)C1)c1ccc(F)cc1` (racemic) [Example 21, (±) 4-fluoro-N-(7-(6-fluoroquinolin-4-yl)spiro[3.5]nonan-2-yl)benzamide], the IC50 at IDO enzyme was 480 nM; on IDO in Hela cells, greater than 10 nM.

As to `O=C(Nc1ccc(Cl)cc1)C1CCC12CCC(c1ccnc3ccc(F)cc13)CC2` (single isomer, unassigned) [Example 10A, (±) N-(4-chlorophenyl)-7-(6-fluoroquinolin-4-yl)spiro[3.5]nonane-1-carboxamide], the IC50 at IDO enzyme was 520 nM; on IDO in Hela cells, greater than 3 nM.

`O=C(Nc1ccc(Cl)cc1)C1CC2(CCC(c3ccnc4ccc(F)cc34)CC2)C1` (single isomer, unassigned) [Example 15A, N-(4-chlorophenyl)-7-(6-fluoroquinolin-4-yl)spiro[3.5]nonane-2-carboxamide]: the IC50 was 3660 nM on IDO enzyme and greater than 10 nM on IDO in Hela cells.

In the case of `O=C(Nc1ccc(Cl)cc1)C1CC2(CCC(c3ccnc4ccc(F)cc34)CC2)C1` (single isomer, unassigned) [Example 15B, N-(4-chlorophenyl)-7-(6-fluoroquinolin-4-yl)spiro[3.5]nonane-2-carboxamide], the IC50 worked out at 400 nM on IDO enzyme and 2.53 nM against IDO in Hela cells.
